Assay results published in article PMC6600388 (2019).
Read-outs that look alike come from different tables or passages of the source. Residues, ends and D or L forms follow the SMILES beside them.

Tested on: human red blood cells
[1] = read-out: RBC Lysis IC50, pH 7.4, pH 7.4
[2] = read-out: RBC Lysis IC50, pH 5.5, pH 5.5

Compound | IC50 (red cells of human, pH 5.5) | IC50 (red cells of human, pH 7.4) | IC50 [1] | IC50 [2]
CC[C@H](C)[C@H](NC(=O)[C@H](C)NC(=O)[C@H](CCC(=O)O)NC(=O)[C@H](C)NC(=O)[C@H](CC(C)C)NC(=O)CNC(=O)[C@@H](N)CS)C(=O)N[C@@H](CCC(=O)O)C(=O)NCC(=O)N[C@@H](Cc1ccccc1)C(=O)N[C@H](C(=O)N[C@@H](CCC(=O)O)C(=O)N[C@@H](CC(N)=O)C(=O)NCC(=O)N[C@@H](CC(C)C)C(=O)N[C@@H](CCCCN)C(=O)NCC(=O)N[C@@H](CC(C)C)C(=O)N[C@H](C(=O)N[C@@H](CC(=O)O)C(=O)N[C@@H](Cc1c[nH]c2ccccc12)C(=O)N[C@@H](Cc1c[nH]c2ccccc12)C(=O)N[C@@H](Cc1ccc(O)cc1)C(=O)NCC(=O)N[C@@H](Cc1ccc(O)cc1)C(=O)NCC(=O)N[C@@H](CCCNC(=N)N)C(=O)N[C@@H](CCCCN)C(=O)N[C@@H](CCCCN)C(=O)N[C@@H](CCCNC(=N)N)C(=O)N[C@@H](CCCNC(=N)N)C(=O)N[C@@H](CCC(N)=O)C(=O)N[C@@H](CCCNC(=N)N)C(=O)N[C@@H](CCCNC(=N)N)C(N)=O)[C@@H](C)CC)[C@@H](C)CC [Peptide 58] (H-CGLAEAIEGFIENGLKGLIDWWYGYGRKKRRQRR-NH2) | 60 nM | 2000 nM | – | –
CGLFEAIEGFIENGWEGMIDGWYG(Peg11)YGRKKRRQRR [Peptide 36e] | – | – | > 100000 nM | –
CGLFEAIEGFIENGWEGMIDGWYG(Peg 3)YGRKKRRQRR [Peptide 36c] | – | – | > 10000 nM | 1920 nM
CC[C@H](C)[C@H](NC(=O)[C@H](CC(C)C)NC(=O)[C@H](CCC(=O)O)NC(=O)[C@H](CCC(=O)O)NC(=O)[C@@H](NC(=O)[C@H](CCC(=O)O)NC(=O)[C@H](CCC(=O)O)NC(=O)[C@H](Cc1ccccc1)NC(=O)[C@H](CC(C)C)NC(=O)CNC(=O)[C@@H](N)CS)[C@@H](C)CC)C(=O)N[C@@H](CCC(=O)O)C(=O)N[C@@H](CCC(=O)O)C(=O)NCC(=O)N[C@@H](CC(C)C)C(=O)N[C@@H](CCCCN)C(=O)N[C@@H](CC(N)=O)C(=O)N[C@@H](CC(C)C)C(=O)N[C@H](C(=O)N[C@@H](CC(=O)O)C(=O)N[C@@H](Cc1c[nH]c2ccccc12)C(=O)N[C@@H](Cc1c[nH]c2ccccc12)C(=O)N[C@@H](Cc1ccc(O)cc1)C(=O)NCC(=O)N[C@@H](Cc1ccc(O)cc1)C(=O)NCC(=O)N[C@@H](Cc1c[nH]cn1)C(=O)N[C@@H](CCCCN)C(=O)N[C@@H](CCCCN)C(=O)N[C@@H](Cc1c[nH]cn1)C(=O)N[C@@H](Cc1c[nH]cn1)C(=O)N[C@@H](CCC(N)=O)C(=O)N[C@@H](Cc1c[nH]cn1)C(=O)N[C@@H](CCCNC(=N)N)C(N)=O)[C@@H](C)CC [Peptide 70] (H-CGLFEEIEELIEEGLKNLIDWWYGYGHKKHHQHR-NH2) | 2280 nM | > 20000 nM | – | –
CC[C@H](C)[C@H](NC(=O)[C@H](CCCCN)NC(=O)[C@@H](NC(=O)[C@H](CCC(N)=O)NC(=O)[C@H](CCCNC(=N)N)NC(=O)[C@@H](N)CS)[C@@H](C)CC)C(=O)N[C@@H](Cc1c[nH]c2ccccc12)C(=O)N[C@@H](Cc1ccccc1)C(=O)N[C@@H](CCC(N)=O)C(=O)N[C@@H](CC(N)=O)C(=O)N[C@@H](CCCNC(=N)N)C(=O)N[C@@H](CCCNC(=N)N)C(=O)N[C@@H](CCSC)C(=O)N[C@@H](CCCCN)C(=O)N[C@@H](Cc1c[nH]c2ccccc12)C(=O)N[C@@H](CCCCN)C(=O)N[C@@H](CCCCN)C(N)=O [Peptide 2, reference compound] | > 20000 nM | > 20000 nM | – | –
CGLFEAIEGFIENGWEGMIDGWYG(Peg 6)YGRKKRRQRR [Peptide 36d] | – | – | > 10000 nM | 1220 nM
